Results as given in ChEMBL document CHEMBL6120994, “Unravelling the potential of natural chelating agents in the control of Staphylococcus aureus and Pseudomonas aeruginosa biofilms” (Eur J Med Chem, 2025).
≈ marks a conversion by molar mass, not a printed value. Calls of active or inactive are those of the source. No cut-off for these calls is given here.

Legend:
Staphylococcus aureus [1] = experiment: Antibiotic adjuvant activity against Staphylococcus aureus CECT 976 assessed as potentiation of tobramycin-induced antibiofilm activity by measuring reduction in metabolic activity of biofilm cells at 500 ug/ml in presence of tobramycin by resazurin staining based fluorescence analysis; format: functional, organism-based; conditions: dose 500.0 µg/ml
HepG2 = experiment: Protection against iron(III)-induced cytotoxicity in human HepG2 cells assessed as cell mass at 250 to 750 ug/ml measured after 24 hrs by SRB binding assay (reference value: 56.2 +/-5.4%); format: functional; conditions: dose 250-750 µg/ml, at 250 to 750 µg/mL
Pseudomonas aeruginosa [2] = experiment: Antibiofilm activity against Pseudomonas aeruginosa ATCC 10145 assessed as reduction in biofilm cells culturability by measuring reduction in number of CFU at 500 to 1000 ug/ml measured after 24 hrs by visual counting method; format: functional, organism-based; conditions: dose 500-1000 µg/ml
Pseudomonas aeruginosa [3] = experiment: Antibiofilm activity against Pseudomonas aeruginosa ATCC 10145 assessed as reduction in biomass production at 500 to 1000 ug/ml measured after 24 hrs by crystal violet staining method; format: functional, organism-based; conditions: dose 500-1000 µg/ml
Staphylococcus aureus [4] = experiment: Inhibition of virulence production in Staphylococcus aureus CECT 976 biofilms assessed as diameter of lipases halo at 1/2XMTC measured after 48 hrs (reference value: 11.5 to 13.3 mm); format: functional
Escherichia coli = experiment: Antibacterial activity against Escherichia coli BNCC133721 assessed as inhibition of bacterial growth measured after 24 hrs by broth microdilution method; format: functional
Staphylococcus aureus [5] = experiment: Antibiofilm activity against Staphylococcus aureus ATCC 6538 assessed as reduction in biomass at 700 ug/ml measured after 48 hrs by crystal violet staining based analysis; format: functional
Staphylococcus aureus [6] = experiment: Antibiotic adjuvant activity against Staphylococcus aureus CECT 976 assessed as fold potentiation of tobramycin-induced antibiofilm activity by measuring reduction in biomass production at 500 ug/ml measured after 24 hrs in presence of 1/4XMIC tobramycin by crystal violet staining method relative to tobramycin treated control; format: functional; conditions: dose 500 µg/ml
Staphylococcus aureus [7] = experiment: Inhibition of virulence production in Staphylococcus aureus CECT 976 biofilms assessed as diameter of gelatinases halo at 1/2XMTC measured after 48 hrs in presence of 1/8XMIC tobramycin (reference value: 11.3 to 12 mm); format: functional
Pseudomonas aeruginosa [8] = experiment: Antibiotic adjuvant activity against Pseudomonas aeruginosa ATCC 10145 assessed as fractional inhibitory concentration index (MBC) at 125 ug/ml measured after 24 hrs in presence of ciprofloxacin by checkerboard assay; format: functional; conditions: dose 125 µg/ml
Pseudomonas aeruginosa [9] = experiment: Antibiotic adjuvant activity against Pseudomonas aeruginosa ATCC 10145 assessed as ciprofloxacin MBC at 125 ug/ml measured after 24 hrs in presence of ciprofloxacin by checkerboard assay (reference value: 32 ug/ml); format: functional; conditions: dose 125 µg/ml
Staphylococcus aureus [10] = experiment: Inhibition of virulence production in Staphylococcus aureus CECT 976 biofilms assessed as diameter of lipases halo at 1XMTC measured after 48 hrs (reference value: 11.8 to 12.5 mm); format: functional
Pseudomonas aeruginosa [11] = experiment: Antibiotic adjuvant activity against Pseudomonas aeruginosa ATCC 10145 assessed as potentiation of ciprofloxacin-induced antibiofilm activity by measuring reduction in biomass production at 500 ug/ml measured after 24 hrs in presence of 1/16XMIC ciprofloxacin by cystal violet staining method (reference value: 36%); format: functional
Staphylococcus aureus [12] = experiment: Bactericidal activity against Staphylococcus aureus CECT 976 assessed as bacterial killing incubated in MHB for 24 hrs and measured following culturing on agar plate for 24 hrs; format: functional; conditions: time 48 hrs
Pseudomonas aeruginosa [13] = experiment: Antibiofilm activity against Pseudomonas aeruginosa PAO1 biofilm assessed as reduction of bacterial biomass by crystal violet staining based analysis; format: functional
Staphylococcus aureus [14] = experiment: Antibiotic adjuvant activity against Staphylococcus aureus CECT 976 assessed as potentiation of tobramycin-induced antibiofilm activity by measuring reduction of CFU of biofilm cells at 500 ug/ml measured after 24 hrs in presence of 1/2X to 1/8XMIC tobramycin by visual counting method; format: functional; conditions: dose 500 µg/ml
Acinetobacter baumannii = experiment: Antibacterial activity against Acinetobacter baumannii assessed as inhibition of bacterial growth incubated for 16 hrs by broth microdilution method; format: functional
Staphylococcus aureus [15] = experiment: Antibiotic adjuvant activity against preestablished 24 hr-old Staphylococcus aureus CECT 976 assessed as potentiation of tobramycin-induced antibiofilm activity by measuring reduction of biomass at 10000 ug/ml measured after 24 hrs in presence of 1/4XMIC to MIC tobramycin by crystal violet staining method; format: functional, organism-based; conditions: dose 10000.0 µg/ml
Staphylococcus aureus [16] = experiment: Antibiofilm activity against preestablished 24 hr-old Staphylococcus aureus CECT 976 assessed as reduction in biofilm cells culturability by measuring log reduction of CFU of biofilm cells at 10XMTC measured after 24 hrs by visual counting method; format: functional
Pseudomonas aeruginosa [17] = experiment: Antibiofilm activity against Pseudomonas aeruginosa ATCC 10145 assessed as reduction in metabolic activity of biofilm cells at 500 to 1000 ug/ml by resazurin staining based fluorescence analysis; format: functional, organism-based; conditions: dose 500-1000 µg/ml
Pseudomonas aeruginosa [18] = experiment: Antibacterial activity against Pseudomonas aeruginosa assessed as inhibition of bacterial growth incubated for 24 hrs by broth microdilution method; format: functional
Pseudomonas aeruginosa [19] = experiment: Antibiofilm activity against Pseudomonas aeruginosa ATCC 10145 assessed as reduction in metabolic activity of biofilm cells at 1000 ug/ml by resazurin staining based fluorescence analysis; format: functional
Staphylococcus aureus [20] = experiment: Antibiotic adjuvant activity against preestablished 24 hr-old Staphylococcus aureus CECT 976 assessed as potentiation of tobramycin-induced antibiofilm activity by measuring log reduction of CFU of biofilm cells at 10000 ug/ml in presence of 1/4XMIC to MIC tobramycin measured after 24 hrs by visual counting method; format: functional; conditions: dose 10000 µg/ml
Staphylococcus aureus [21] = experiment: Antibacterial activity against Staphylococcus aureus assessed as inhibition of bacterial growth incubated for 24 hrs by broth microdilution method; format: functional
Staphylococcus aureus [22] = experiment: Antibiotic adjuvant activity against preestablished 24 hr-old Staphylococcus aureus CECT 976 assessed as potentiation of tobramycin-induced antibiofilm activity by measuring reduction of biomass at 10000 ug/ml measured after 24 hrs in presence of 1/4XMIC tobramycin by crystal violet staining method; format: functional
Pseudomonas aeruginosa [23] = experiment: Antibiotic adjuvant activity against Pseudomonas aeruginosa ATCC 10145 assessed as ciprofloxacin MBC at 15.6 ug/ml measured after 24 hrs in presence of ciprofloxacin by checkerboard assay (reference value: 32 ug/ml); format: functional; conditions: dose 15.6 µg/ml
Pseudomonas aeruginosa [24] = experiment: Antibiofilm activity against Pseudomonas aeruginosa ATCC 10145 assessed as reduction in biomass production at 500 ug/ml measured after 24 hrs by crystal violet staining method; format: functional
Pseudomonas aeruginosa [25] = experiment: Antibiofilm activity against Pseudomonas aeruginosa ATCC 10145 assessed as reduction in biomass production at 1000 ug/ml measured after 24 hrs by crystal violet staining method; format: functional
Pseudomonas aeruginosa [26] = experiment: Antibiofilm activity against preestablished 24 hr-old Pseudomonas aeruginosa ATCC 10145 assessed as reduction in biofilm cells culturability by measuring log reduction of CFU of biofilm cells at 10XMTC measured after 24 hrs by visual counting method; format: functional
[27] = Cytotoxicity against human HepG2 cells assessed as cell mass at 375 to 500 ug/ml measured after 24 hrs by SRB binding assay; format: toxicity, cell-based; conditions: at 375 to 500 µg/mL, dose 375-500 µg/ml, read-out: Activity
Pseudomonas aeruginosa [28] = experiment: Antibiotic adjuvant activity against Pseudomonas aeruginosa ATCC 10145 assessed as fractional inhibitory concentration index (MBC) at 15.6 ug/ml measured after 24 hrs in presence of ciprofloxacin by checkerboard assay; format: functional; conditions: dose 15.6 µg/ml
Staphylococcus aureus [29] = experiment: Antibacterial activity against Staphylococcus aureus assessed as loss of intracellular content at 5000 ug/ml incubated for 4 hrs by transmission electron microscopy; format: functional; conditions: dose 5000 µg/ml

With `O=c1cc(CO)occ1O` [KOJIC ACID] the Activity (Staphylococcus aureus [1]) was “inactive”, the Activity (HepG2) was >61.8% and the Activity (Pseudomonas aeruginosa [2]) was “inactive”. The Activity (Pseudomonas aeruginosa [3]) was “inactive”, the Activity (Staphylococcus aureus [4]) was 2.8 mm and the Activity (Escherichia coli) was >1000 µg/mL. For the same molecule, the inhibition at 700 µg/mL (Staphylococcus aureus [5]) was 40%, the “fold change (FC)” value (Staphylococcus aureus [6]) was 2.6 and the Activity (Staphylococcus aureus [7]) was 0 mm. For the same molecule, the “fractional inhibitory concentration index (FICI)” value (Pseudomonas aeruginosa [8]) was 1, the MBC (Pseudomonas aeruginosa [9]) was 32 µg/mL and the Activity (Staphylococcus aureus [10]) was 3.3 mm. For the same molecule, the inhibition at 500 µg/mL (Pseudomonas aeruginosa [11]) was 60%, the MBC (Staphylococcus aureus [12]) was > 1000 µg/mL and the “inhibition (INH)” value (Pseudomonas aeruginosa [13]) was 27%. The Activity (Staphylococcus aureus [14]) was 2 log10CFU/cm^-2, the MIC (Acinetobacter baumannii) was 3410 µg/mL (≈ 24 mM) and the Activity (Staphylococcus aureus [15]) was “inactive”. The Activity (Staphylococcus aureus [16]) was 1.9 log10CFU/cm^-2 and the Activity (Pseudomonas aeruginosa [17]) was “inactive”.

For `Cc1occc(=O)c1O` [MALTOL], the Activity (Staphylococcus aureus [1]) was “inactive”, the MIC (Pseudomonas aeruginosa [18]) was 4000 µg/mL (≈ 31.7 mM) and the inhibition at 1000 µg/mL (Pseudomonas aeruginosa [19]) was 30%. It also gave an Activity (Staphylococcus aureus [20]) of 2 log10CFU/cm^-2, an Activity (Staphylococcus aureus [4]) of 3.5 mm and an MIC (Staphylococcus aureus [21]) of 4000 µg/mL (≈ 31.7 mM). The Activity (Staphylococcus aureus [7]) was 0 mm, the inhibition at 10000 µg/mL (Staphylococcus aureus [22]) was 31% and the MBC (Pseudomonas aeruginosa [23]) was 32 µg/mL. The inhibition at 500 µg/mL (Pseudomonas aeruginosa [24]) was < 15%, the Activity (Staphylococcus aureus [10]) was 3 mm and the inhibition at 500 µg/mL (Pseudomonas aeruginosa [11]) was 60%. For the same molecule, the inhibition at 1000 µg/mL (Pseudomonas aeruginosa [25]) was 40%, the Activity (Pseudomonas aeruginosa [26]) was 3.1 log10CFU/cm^-2 and the MBC (Staphylococcus aureus [12]) was > 1000 µg/mL. The viability at 24 h [27] was 68%, the “fractional inhibitory concentration index (FICI)” value (Pseudomonas aeruginosa [28]) was 1 and the Activity (Staphylococcus aureus [29]) was 7.7%.
